Measured values published in patent US11414450B1, “Aminoglycosides and uses thereof” (REVAGENIX, INC., priority 2017, dated 2022).
In brackets after ≈: the same amount, converted by molar mass.

Legend:
translation = test: Translation Inhibition Assay; assay type: biochemical
Source text: Biological Example 2: Translation Inhibition Assay

[1] = system: E. coli Δefflux (tolC efflux pump knocked-out); test: MIC broth microdilution, E. coli Δefflux strain (tolC knocked out); assay type: cell-based; conditions: Table 1
Protocol: (§1) Minimum inhibitory concentrations for the example compounds herein are determined by the broth microdilution method in accordance with the Clinical and Laboratory Standards Institute (CLSI) guidelines. In brief, organism suspensions are adjusted to a 0.5 McFarland standard to yield a final inoculum between 3×10^5 and 7×10^5 colony-forming units (CFU)/mL. Compound dilutions and inocula are made in sterile, cation adjusted Mueller-Hinton Broth (Beckton Dickinson). The inoculum is prepared by suspension of a colony from an agar plate that is prepared the previous day. Bacteria are suspended in sterile saline and added to each assay plate to obtain a final concentration of 5×10^5 CFU/mL. An inoculum volume of 100 μL is added to wells containing 100 μL of broth with 2-fold serial dilutions of the compound. All inoculated microdilution trays are incubated in ambient air at 35° C. for 18-24 hours. Following incubation, the lowest concentration of the compound that prevents visible growth (OD 600 nm<0.05) is recorded as the MIC. […] Performance of the assay is monitored by the use of laboratory quality-control strains and a compound with a defined MIC spectrum (such as levofloxacin), in accordance with CLSI guidelines. Compounds are tested against multiple microbiologic panels. Panels include: 1) a multi-species primary screening panel that includes multiple defined AG-R mechanisms; 2) a panel of isogenic strains carrying different common mechanisms of AG-R that allows characterization of the SAR for AMEs, RMTs, and entry and efflux resistance mechanisms; and 3) panels of recent clinical isolates selected from Phase 3 studies and ongoing global surveillance.

E. coli efflux parent = test: MIC broth microdilution, E. coli efflux parent strain; assay type: cell-based; conditions: Table 1; geometric mean
Protocol: as §1

[2] = system: P. aeruginosa efflux parent; test: MIC broth microdilution, P. aeruginosa efflux parent strain; assay type: cell-based; conditions: for MIC: Pseudomonas aeruginosa, P. aeruginosa efflux parent strain, read-out: Geometric Mean MIC values, P. aeruginosa efflux parent
Protocol: as §1

E. coli ATCC 25922 = test: Minimum inhibitory concentration (broth microdilution, CLSI), E. coli ATCC 25922; assay type: cell-based; conditions: Table 1; geometric mean
Protocol: as §1

P. aeruginosa ATCC 27853 = test: MIC broth microdilution, P. aeruginosa ATCC 27853; assay type: cell-based; conditions: for MIC: Pseudomonas aeruginosa, ATCC27853, P. aeruginosa ATCC 27853, contains aph(3′)-IIb, read-out: Geometric Mean MIC values, P. aeruginosa ATCC 27853
Protocol: as §1

[3] = system: P. aeruginosa Δefflux (MexAB-OprM, MexCD-OprJ, MexEF-OprN knocked out); test: MIC broth microdilution, P. aeruginosa Δefflux strain; assay type: cell-based
Protocol: as §1

[4] = Table 1, MexEF-OprN efflux pumps knocked out
[5] = Table 2, strain contains aph(3′)-IIb
[6] = Table 2, MexEF-OprN efflux pumps knocked out
[7] = P. aeruginosa Δefflux, MexEF-OprN efflux pumps knocked out

Compound	IC50 (translation; Table 2)	Geometric Mean MIC values, P. aeruginosa efflux parent ([2]; Table 2)	Geometric Mean MIC values, P. aeruginosa ATCC 27853 (P. aeruginosa ATCC 27853; [5])	Geometric Mean MIC values, P. aeruginosa Δefflux [3, 6]	other results
NCC1OC(OC2C(CO)OC(OC3C(O)C(N)CC(N)C3OC3OC(CN)C(O)C(F)C3N)C2O)C(N)C(O)C1O (stereo not shown) [drawing 853]					IC50 (translation; Table 1): 0.01 µM; Geometric Mean MIC values, E. coli Δefflux [1]: 1 mg/L; Geometric Mean MIC values, E. coli efflux parent (E. coli efflux parent): 2 mg/L; Geometric Mean MIC values, P. aeruginosa efflux parent ([2]; Table 1, geometric mean): 2 mg/L; Geometric Mean MIC values, E. coli ATCC 25922 (E. coli ATCC 25922): 2 mg/L; Geometric Mean MIC values, P. aeruginosa ATCC 27853 (P. aeruginosa ATCC 27853; Table 1, geometric mean): 1 mg/L; Geometric Mean MIC values, P. aeruginosa Δefflux [3, 4]: 0.5 mg/L
CCC(N)C1CCC(N)C(OC2C(N)CC(N)C(O)C2OC2OC(CO)C(OC3OC(CN)C(O)C(O)C3N)C2O)O1 (stereo not shown) [drawing 876]	0.032 µM	2 mg/L	1.4 mg/L	0.5 mg/L	
CO[C@@H]1[C@@H](O[C@@H]2O[C@H](CO)[C@@H](O[C@H]3O[C@@H](CN)[C@@H](O)[C@H](O)[C@H]3N)[C@H]2O)[C@H](O[C@H]2O[C@H](CN)CC[C@H]2N)[C@@H](N)C[C@H]1N [drawing 891]					IC50 (translation; translation inhibition assay): 0.0057 µM; MIC [2]: 1 mg/L (≈ 1.68 µM); MIC (P. aeruginosa ATCC 27853): 1 mg/L (≈ 1.68 µM); Geometric Mean MIC values, P. aeruginosa Δefflux [3, 7]: 0.25 mg/L
NCC1OC(OC2C(N)CC(N)C(O)C2OC2OC(CO)C(OC3OC(CN)C(O)C(O)C3N)C2O)C(N)CC1O (stereo not shown) [drawing 880, reference compound]	0.0085 µM	0.5 mg/L	0.25 mg/L	0.25 mg/L	
CC(N)C1CCC(N)C(OC2C(N)CC(N)C(O)C2OC2OC(CO)C(OC3OC(CN)C(O)C(O)C3N)C2O)O1 (stereo not shown) [drawing 849]					IC50 (translation; Table 1): 0.014 µM; Geometric Mean MIC values, E. coli Δefflux [1]: 1 mg/L; Geometric Mean MIC values, E. coli efflux parent (E. coli efflux parent): 1 mg/L; Geometric Mean MIC values, P. aeruginosa efflux parent ([2]; Table 1, geometric mean): 1 mg/L; Geometric Mean MIC values, E. coli ATCC 25922 (E. coli ATCC 25922): 1.6 mg/L; Geometric Mean MIC values, P. aeruginosa ATCC 27853 (P. aeruginosa ATCC 27853; Table 1, geometric mean): 0.71 mg/L; Geometric Mean MIC values, P. aeruginosa Δefflux [3, 4]: 0.5 mg/L
CC(N)C1CCC(N)C(OC2C(N)CC(N)C(O)C2OC2OC(CO)C(OC3OC(CN)C(O)C(O)C3N)C2O)O1 (stereo not shown) [drawing 874]	0.014 µM	4 mg/L	2 mg/L	0.5 mg/L	
NCC1CCC(N)C(OC2C(N)CC(N)C(O)C2OC2OC(CO)C(OC3OC(CN)C(O)C(O)C3N)C2O)O1 (stereo not shown) [drawing 872, reference compound]	0.01 µM	0.73 mg/L	0.53 mg/L	0.4 mg/L	
NCC1CCC(N)C(OC2C(N)CC(N)C(O)C2OC2OC(CO)C(OC3OC(CN)C(O)C(O)C3N)C2O)O1 (stereo not shown) [drawing 848]					IC50 (translation; Table 1): 0.013 µM; Geometric Mean MIC values, E. coli Δefflux [1]: 1.4 mg/L; Geometric Mean MIC values, E. coli efflux parent (E. coli efflux parent): 1.4 mg/L; Geometric Mean MIC values, P. aeruginosa efflux parent ([2]; Table 1, geometric mean): 0.77 mg/L; Geometric Mean MIC values, E. coli ATCC 25922 (E. coli ATCC 25922): 1.1 mg/L; Geometric Mean MIC values, P. aeruginosa ATCC 27853 (P. aeruginosa ATCC 27853; Table 1, geometric mean): 0.57 mg/L; Geometric Mean MIC values, P. aeruginosa Δefflux [3, 4]: 0.5 mg/L
NC[C@@H]1O[C@H](O[C@H]2[C@@H](O)[C@H](O[C@@H]3[C@@H](O)[C@H](N)C[C@H](N)[C@H]3O[C@H]3O[C@H](CN)[C@@H](O)[C@H](O)[C@H]3N)O[C@@H]2CO)[C@H](N)[C@@H](O)[C@@H]1O [drawing 881, neomycin, reference compound]	0.0073 µM	6.8 mg/L	1 mg/L	2.2 mg/L	
NC[C@@H]1O[C@H](O[C@H]2[C@@H](O)[C@H](O[C@@H]3[C@@H](O)[C@H](N)C[C@H](N)[C@H]3O[C@H]3O[C@H](CN)[C@H](O)[C@H](F)[C@H]3N)O[C@@H]2CO)[C@H](N)[C@@H](O)[C@@H]1O	0.018 µM	2 mg/L	1 mg/L	0.5 mg/L	
CCC(N)C1CCC(N)C(OC2C(N)CC(N)C(O)C2OC2OC(CO)C(OC3OC(CN)C(O)C(O)C3N)C2O)O1 (stereo not shown) [drawing 852]					IC50 (translation; Table 1): 0.026 µM; Geometric Mean MIC values, E. coli Δefflux [1]: 1 mg/L; Geometric Mean MIC values, E. coli efflux parent (E. coli efflux parent): 2 mg/L; Geometric Mean MIC values, P. aeruginosa efflux parent ([2]; Table 1, geometric mean): 2 mg/L; Geometric Mean MIC values, E. coli ATCC 25922 (E. coli ATCC 25922): 1 mg/L; Geometric Mean MIC values, P. aeruginosa ATCC 27853 (P. aeruginosa ATCC 27853; Table 1, geometric mean): 1 mg/L; Geometric Mean MIC values, P. aeruginosa Δefflux [3, 4]: 0.5 mg/L
NC[C@@H]1O[C@H](O[C@H]2[C@@H](O)[C@H](O[C@@H]3[C@@H](O)[C@H](N)C[C@H](N)[C@H]3O[C@H]3O[C@H](CN)C(F)(F)[C@H](O)[C@H]3N)O[C@@H]2CO)[C@H](N)[C@@H](O)[C@@H]1O	0.013 µM	8 mg/L	64 mg/L	1 mg/L	
NCC1OC(OC2C(CO)OC(OC3C(O)C(N)CC(N)C3OC3OC(CN)C(O)C(F)C3N)C2O)C(N)C(O)C1O (stereo not shown) [drawing 882]	0.01 µM	2 mg/L	1 mg/L	0.5 mg/L	
CC(N)C1CCC(N)C(OC2C(N)CC(N)C(O)C2OC2OC(CO)C(OC3OC(CN)C(O)C(O)C3N)C2O)O1 (stereo not shown) [drawing 850]					IC50 (translation; Table 1): 0.014 µM; Geometric Mean MIC values, E. coli Δefflux [1]: 1 mg/L; Geometric Mean MIC values, E. coli efflux parent (E. coli efflux parent): 1 mg/L; Geometric Mean MIC values, P. aeruginosa efflux parent ([2]; Table 1, geometric mean): 4 mg/L; Geometric Mean MIC values, E. coli ATCC 25922 (E. coli ATCC 25922): 2.5 mg/L; Geometric Mean MIC values, P. aeruginosa ATCC 27853 (P. aeruginosa ATCC 27853; Table 1, geometric mean): 2 mg/L; Geometric Mean MIC values, P. aeruginosa Δefflux [3, 4]: 0.5 mg/L
NCC1OC(OC2C(CO)OC(OC3C(O)C(N)CC(N)C3OC3OC(CN)C(O)C(F)C3O)C2O)C(N)C(O)C1O (stereo not shown) [drawing 883]	0.024 µM	4 mg/L	2 mg/L	0.5 mg/L	
NCC1OC(OC2C(CO)OC(OC3C(O)C(N)CC(N)C3OC3OC(CN)C(O)C(F)(F)C3N)C2O)C(N)C(O)C1O (stereo not shown) [drawing 854]					IC50 (translation; Table 1): 0.063 µM; Geometric Mean MIC values, E. coli Δefflux [1]: 2 mg/L; Geometric Mean MIC values, E. coli efflux parent (E. coli efflux parent): 4 mg/L; Geometric Mean MIC values, P. aeruginosa efflux parent ([2]; Table 1, geometric mean): 8 mg/L; Geometric Mean MIC values, E. coli ATCC 25922 (E. coli ATCC 25922): 4 mg/L; Geometric Mean MIC values, P. aeruginosa ATCC 27853 (P. aeruginosa ATCC 27853; Table 1, geometric mean): 4 mg/L; Geometric Mean MIC values, P. aeruginosa Δefflux [3, 4]: 1 mg/L
CCC(N)C1CCC(N)C(OC2C(N)CC(N)C(O)C2OC2OC(CO)C(OC3OC(CN)C(O)C(O)C3N)C2O)O1 (stereo not shown) [drawing 877]	0.026 µM	2 mg/L	1 mg/L	0.5 mg/L	
NCC1OC(OC2C(CO)OC(OC3C(O)C(N)CC(N)C3OC3OC(C4(N)CC4)CCC3N)C2O)C(N)C(O)C1O (stereo not shown) [drawing 875]	0.0075 µM	2 mg/L	2 mg/L	0.25 mg/L	
CC(N)C1CCC(N)C(OC2C(N)CC(N)C(O)C2OC2OC(CO)C(OC3OC(CN)C(O)C(O)C3N)C2O)O1 (stereo not shown) [drawing 873]	0.012 µM	1.2 mg/L	0.84 mg/L	0.42 mg/L	
NCC1OC(OC2C(CO)OC(OC3C(O)C(N)CC(N)C3OC3OC(CN)C(O)C(F)C3N)C2O)C(N)C(O)C1O (stereo not shown) [drawing 884]	0.1 µM	8 mg/L	4 mg/L	2 mg/L	
NC[C@@H]1CC[C@@H](N)[C@@H](O[C@@H]2[C@@H](N)[C@H](O)[C@@H](N)[C@H](O)[C@H]2O[C@@H]2O[C@H](CO)[C@@H](O[C@H]3O[C@@H](CN)[C@@H](O)[C@H](O)[C@H]3N)[C@H]2O)O1 [drawing 890]					IC50 (translation; translation inhibition assay): 0.0079 µM; MIC [2]: 1 mg/L (≈ 1.67 µM); MIC (P. aeruginosa ATCC 27853): 0.5 mg/L (≈ 0.835 µM); Geometric Mean MIC values, P. aeruginosa Δefflux [3, 7]: 0.25 mg/L
NC[C@@H]1O[C@H](O[C@H]2[C@@H](O)[C@H](O[C@@H]3[C@@H](O)[C@H](N)C[C@H](N)[C@H]3O[C@H]3O[C@H](CN)[C@@H](O)C(F)(F)[C@H]3N)O[C@@H]2CO)[C@H](N)[C@@H](O)[C@@H]1O	0.062 µM	8 mg/L	4 mg/L	1 mg/L	
